Test results: PubChem BioAssay AID179 (DTP/NCI, 2004)
Active and inactive are the calls of the source.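 The calls were made as follows: active = compounds giving half or more protection of infected cells from virus-caused growth loss, again on retest; inactive = the rest.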

System: CEM cells HIV-1 protection, formazan growth assay
Assay: NCI AIDS Antiviral Assay
Conditions: for IC50: measured here: growth of uninfected CEM cells
Procedure, shortened: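 Human CEM cells, uninfected and HIV-1-infected, exposed to five drug concentrations; growth measured by soluble formazan assay and scored as percent protection from infection, with protecting compounds retested.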

Structure (SMILES)	EC50	IC50	outcome
O=Cc1ccc(C(F)(F)F)cc1.[C-]#[O+].[C-]#[O+].[C-]#[O+].[Cr]	> 20 µM	3.98 µM	–
Cc1ccc(N=Nc2ccc(O)c(=O)cc2)cc1	> 11.2 µM	6.92 µM	–
O=Cc1cc2c(cc1-c1cc3c(cc1C=O)OCO3)OCO2	> 107 µM	> 107 µM	–
COc1ccc(-c2nc3c(nc2-c2ccc(OC)cc2)C(N)=NS(=O)(=O)N3)cc1	> 166 µM	> 166 µM	–
CC1(C)S(=O)(=O)OCCOS1(=O)=O	> 200 µM	110 µM	–
O=C(OCC1OC(n2nc(Cn3nnc(-c4cccnc4)n3)n(-c3cccc4ccccc34)c2=S)C(OC(=O)c2ccccc2)C1OC(=O)c1ccccc1)c1ccccc1 (centres undefined)	> 100 µM	> 100 µM	–
C#CCN1CCN(C(=S)N/N=C(\C)c2ccccn2)CC1	> 2.24 µM	0.0724 µM	–
O=Nc1ccccc1C(=O)O	> 151 µM	47.9 µM	–
OC1CCC2OOC1O2 (centres undefined)	–	–	inactive
NCC(NC(=O)OCc1ccccc1)C(=O)O (centres undefined)	> 105 µM	> 105 µM	–
Cc1cc(O)ccc1C1(c2ccc(O)cc2C)OS(=O)(=O)c2ccccc21	–	–	inactive
Cc1ccc(NC(=O)/C(C#N)=C/c2ccccc2)c(C)c1	> 24.5 µM	> 24.5 µM	–
O=C1CCCC1C(O)(C(F)(F)Cl)C(F)(F)Cl (centres undefined)	> 200 µM	> 200 µM	–
Cc1cc(C)nc(NS(=O)(=O)c2ccc(NNc3c4ccccc4nc4c(C(=O)Nc5ccc(S(=O)(=O)N=C(N)N)cc5)cccc34)cc2)n1	> 200 µM	31.6 µM	–
Cc1cn2c(C)csc2c1P(=O)(OC(C)C)OC(C)C	> 200 µM	158 µM	–
NC(N)=Nc1ccc(-c2ccc(N=C(N)N)cc2)cc1	> 200 µM	25.1 µM	–
O=C(O)C12C3CCC(O3)C1(C(=O)O)C1CCC2O1 (centres undefined)	> 200 µM	> 200 µM	–
Cc1c(CNc2ccc(Cl)c(Cl)c2Cl)cnc2nc(N)nc(N)c12	> 2 µM	0.347 µM	–

Structure (SMILES)	EC50	IC50	outcome
CCOC(=O)C1(C/C=C/CBr)CCc2ccccc2C1=O (centres undefined)	> 200 µM	2.14 µM	–
C=CCCCC1(C)CCCCNC1=O (centres undefined)	186 µM	> 200 µM	–
CC(C)N(C(=O)C12C3C4C5(C(=O)O)C(C1C35I)C42C(=O)O)C(C)C (centres undefined)	> 562 µM	> 562 µM	–
C(=N\N=C\c1ccccn1)/c1ccccn1	> 200 µM	61.7 µM	–
O=[N+]([O-])c1cc2cnn(CO)c2cc1[N+](=O)[O-]	> 200 µM	16.6 µM	–
Cn1nc(-c2ccccc2)c(C(=O)/C=C/c2ccc(F)cc2)c(N2CCCCC2)c1=O	> 18.6 µM	> 18.6 µM	–
O=C1/C(=C/c2ccccc2)CN(C(=O)Oc2ccc(Cl)cc2)C/C1=C\c1ccccc1	–	–	inactive
CCCCCCNc1n[nH]c(=O)c2c1nnn2Cc1ccccc1	> 200 µM	> 200 µM	–
CC(=O)OCc1cc(=O)n(C)c2c3c4c(cc12)c(C)cc(=O)n4CO3	> 7.94 µM	1.26 µM	–
COc1cc(OCc2ccc3nc(OC)c(OC)nc3c2)cc(OC)c1OC	> 200 µM	> 200 µM	–
C=C(c1ccccc1)C1ON(C)CCc2cc(OC)c(OC)cc21 (centres undefined)	> 200 µM	> 100 µM	–
CC(C)[Si](OC1=C(c2ccccc2)C(NC(=O)/C=C/c2ccc([N+](=O)[O-])cc2)CCC1)(C(C)C)C(C)C (centres undefined)	> 200 µM	> 200 µM	–
O=P1(NC2CCCC2)OCC2(CO1)COP(=O)(NC1CCCC1)OC2 (centres undefined)	> 200 µM	> 200 µM	–
CC(=O)NNC(=S)N/C=C\c1nc2ccccc2[nH]c1=O	> 200 µM	> 200 µM	–
Cn1c2ccccc2n2c3ccccc3c3nnc(N)c-3c12	> 200 µM	28.2 µM	–
CSc1ccc(C(=C=C=C(c2ccc(SC)s2)c2ccc(SC)s2)c2ccc(SC)s2)s1	> 200 µM	> 200 µM	–
Cc1occc1C(=S)Nc1ccc(Cl)c(C(=O)OC2CCCC2)c1	0.00295 µM	16.6 µM	–
C=CCN(c1cc(OC)c2[nH]c(C(=O)O)c(C)c2c1[N+](=O)[O-])S(C)(=O)=O	> 200 µM	> 200 µM	–
